Results as given in US20220289679A1, “HETEROCYCLIC COMPOUND” (Takeda Pharmaceutical Company Limited, priority 2019, published 2022).

Target: T1, human GCS (glucosylceramide synthase) (Homo sapiens, UniProt Q16739)
T1 construct: made in house; host or cells: Expi293F cells (transient expression; microsome fraction)
T1 sequence (Q16739 1-394): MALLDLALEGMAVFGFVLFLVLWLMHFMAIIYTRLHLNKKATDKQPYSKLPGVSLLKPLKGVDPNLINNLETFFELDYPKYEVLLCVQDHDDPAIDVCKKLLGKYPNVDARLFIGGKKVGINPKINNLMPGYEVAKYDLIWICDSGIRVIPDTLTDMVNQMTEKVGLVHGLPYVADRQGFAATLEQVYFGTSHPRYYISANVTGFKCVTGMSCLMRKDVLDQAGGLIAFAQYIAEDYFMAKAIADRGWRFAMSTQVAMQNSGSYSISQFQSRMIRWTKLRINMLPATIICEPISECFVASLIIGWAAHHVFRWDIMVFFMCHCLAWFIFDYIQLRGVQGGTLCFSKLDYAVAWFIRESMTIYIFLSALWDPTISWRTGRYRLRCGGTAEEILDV
Assay: Glucosylceramide Synthase (GCS) Assay
Assay type: biochemical
Details: test compound 10 μM; microsome fraction of Expi293F cells expressing human GCS; 1.7 μM UDP-glucose, 3 μM C8 ceramide; room temperature 60 min; C8 glucosylceramide by Rapidfire MS/MS; read-out: GCS enzyme inhibitory rate at 10 μM (%)
Outline: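 Test compounds were run at a final 10 μM against liposomal C8 ceramide (3 μM) and UDP-glucose at its Km (1.7 μM). Human GCS came as microsomes from transfected Expi293F cells, incubated 60 min at room temperature, pH 7.5. Product measured by RapidFire MS/MS; 0% and 100% inhibition were DMSO and no-enzyme wells.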

Row | SMILES | inhibition at 10 µM [%]
1 | O=C(Nc1ccc(OCC(F)(F)F)nc1)c1cccn(-c2ccc(F)cc2OCC(F)(F)C(F)(F)F)c1=O [Example 56, 1-[4-fluoro-2-(2,2,3,3,3-pentafluoropropoxy)phenyl]-2-oxo-N-[6-(2,2,2-trifluoroethoxy)pyridin-3-yl]-1,2-dihydropyridine-3-carboxamide] | 100
2 | N#Cc1cc(F)ccc1-n1cccc(C(=O)Nc2ccc(C(O)(C(F)(F)F)C(F)(F)F)cc2)c1=O [Example 104, 1-(2-cyano-4-fluorophenyl)-N-[4-(1,1,1,3,3,3-hexafluoro-2-hydroxypropan-2-yl)phenyl]-2-oxo-1,2-dihydropyridine-3-carboxamide] | 95
3 | O=C(Nc1ccc(Oc2ccccc2)cc1)c1cccn(-c2ccc(F)cc2N2CCOCC2)c1=O [Example 17, 1-[4-fluoro-2-(morpholin-4-yl)phenyl]-2-oxo-N-(4-phenoxyphenyl)-1,2-dihydropyridine-3-carboxamide] | 81
4 | COc1cc(F)ccc1-n1cccc(C(=O)Nc2ccn(-c3ccc(F)cc3)n2)c1=O [Example 8, 1-(4-fluoro-2-methoxyphenyl)-N-[1-(4-fluorophenyl)-1H-pyrazol-3-yl]-2-oxo-1,2-dihydropyridine-3-carboxamide] | 66
5 | O=C(Nc1ccc(C(O)(C(F)(F)F)C(F)(F)F)cc1)c1cccn(-c2ccccc2OCC(F)(F)F)c1=O [Example 89, N-[4-(1,1,1,3,3,3-hexafluoro-2-hydroxypropan-2-yl)phenyl]-2-oxo-1-[2-(2,2,2-trifluoroethoxy)phenyl]-1,2-dihydropyridine-3-carboxamide] | 100
6 | COc1cc(F)ccc1-n1cccc(C(=O)Nc2ccc(OC(F)(F)F)cc2)c1=O [Example 6, 1-(4-fluoro-2-methoxyphenyl)-2-oxo-N-[4-(trifluoromethoxy)phenyl]-1,2-dihydropyridine-3-carboxamide] | 52
7 | O=C(Nc1ccc(OCC(F)(F)F)nc1)c1cccn(-c2ccc(F)cc2OCC(F)(F)F)c1=O [Example 26, 1-[4-fluoro-2-(2,2,2-trifluoroethoxy)phenyl]-2-oxo-N-[6-(2,2,2-trifluoroethoxy)pyridin-3-yl]-1,2-dihydropyridine-3-carboxamide] | 100
8 | N#CCc1ccc(NC(=O)c2cccn(-c3ccc(F)cc3OCC(F)(F)F)c2=O)cc1 [Example 57, N-[4-(cyanomethyl)phenyl]-1-[4-fluoro-2-(2,2,2-trifluoroethoxy)phenyl]-2-oxo-1,2-dihydropyridine-3-carboxamide] | 95
9 | O=C(Nc1ccc(OCCC(F)(F)F)nc1)c1cccn(-c2ccc(F)cc2OCC(F)(F)F)c1=O [Example 64, 1-[4-fluoro-2-(2,2,2-trifluoroethoxy)phenyl]-2-oxo-N-[6-(3,3,3-trifluoropropoxy)pyridin-3-yl]-1,2-dihydropyridine-3-carboxamide] | 99
10 | O=C(Nc1ccc(OCC2CC2)cc1)c1cccn(-c2ccc(F)cc2OCC(F)(F)F)c1=O [Example 50, N-[4-(cyclopropylmethoxy)phenyl]-1-[4-fluoro-2-(2,2,2-trifluoroethoxy)phenyl]-2-oxo-1,2-dihydropyridine-3-carboxamide] | 100
11 | O=C(Nc1cnn(CC(F)(F)C(F)(F)F)c1)c1cccn(-c2ccc(F)cc2OCC(F)(F)F)c1=O [Example 62, 1-[4-fluoro-2-(2,2,2-trifluoroethoxy)phenyl]-2-oxo-N-[1-(2,2,3,3,3-pentafluoropropyl)-1H-pyrazol-4-yl]-1,2-dihydropyridine-3-carboxamide] | 77
12 | O=C(Nc1ccc(COCC(F)(F)F)nc1)c1cccn(-c2ccc(F)cc2OCC(F)(F)F)c1=O [Example 73, 1-[4-fluoro-2-(2,2,2-trifluoroethoxy)phenyl]-2-oxo-N-{6-[(2,2,2-trifluoroethoxy)methyl]pyridin-3-yl}-1,2-dihydropyridine-3-carboxamide] | 99
13 | CC(C)(O)c1ccc(NC(=O)c2cccn(-c3ccc(F)cc3OCC(F)(F)C(F)(F)F)c2=O)cc1 [Example 58, 1-[4-fluoro-2-(2,2,3,3,3-pentafluoropropoxy)phenyl]-N-[4-(2-hydroxypropan-2-yl)phenyl]-2-oxo-1,2-dihydropyridine-3-carboxamide] | 99
14 | COc1cc(F)ccc1-n1cccc(C(=O)Nc2ccc(C(F)(F)F)cc2)c1=O [Example 11, 1-(4-fluoro-2-methoxyphenyl)-2-oxo-N-[4-(trifluoromethyl)phenyl]-1,2-dihydropyridine-3-carboxamide] | 88
15 | O=C(Nc1cnc(OC(F)F)nc1)c1cccn(-c2ccc(F)cc2OCC(F)(F)F)c1=O [Example 51, N-[2-(difluoromethoxy)pyrimidin-5-yl]-1-[4-fluoro-2-(2,2,2-trifluoroethoxy)phenyl]-2-oxo-1,2-dihydropyridine-3-carboxamide] | 84

Second part, the molecule after the results:

Row | inhibition at 10 µM [%] | SMILES
16 | 94 | CC(C)(O)c1ccc(NC(=O)c2ccnn(-c3ccccc3OCC(F)F)c2=O)cn1 [Example 134, 2-[2-(2,2-difluoroethoxy)phenyl]-N-[6-(2-hydroxypropan-2-yl)pyridin-3-yl]-3-oxo-2,3-dihydropyridazine-4-carboxamide]
17 | 100 | Cc1cc(C(=O)Nc2ccc(C(O)(C(F)F)C(F)F)cc2F)c(=O)n(-c2ccccc2OCC(F)F)n1 [Example 156, 2-[2-(2,2-difluoroethoxy)phenyl)-N-[2-fluoro-4-(1,1,3,3-tetrafluoro-2-hydroxypropan-2-yl)phenyl]-6-methyl-3-oxo-2,3-dihydropyridazine-4-carboxamide]
18 | 100 | O=C(Nc1ccc(OCC(F)(F)F)nc1)c1cccn(-c2ccccc2OCC(F)(F)F)c1=O [Example 15, 2-oxo-1-[2-(2,2,2-trifluoroethoxy)phenyl]-N-[6-(2,2,2-trifluoroethoxy)pyridin-3-yl]-1,2-dihydropyridine-3-carboxamide]
19 | 94 | Cn1cc(C(=O)Nc2ccc(OCC(C)(C)O)cc2)c(=O)c(-c2ccccc2OCC(F)F)n1 [Example 164, 6-[2-(2,2-difluoroethoxy)phenyl]-N-[4-(2-hydroxy-2-methylpropoxy)phenyl]-2-methyl-5-oxo-2,5-dihydropyridazine-4-carboxamide]
20 | 98 | Cc1cc(C(=O)Nc2ccc(C(C)(C)O)nc2)c(=O)n(-c2ccccc2OCC(F)F)n1 [Example 135, 2-[2-(2,2-difluoroethoxy)phenyl]-N-[6-(2-hydroxypropan-2-yl)pyridin-3-yl]-6-methyl-3-oxo-2,3-dihydropyridazine-4-carboxamide]
21 | 99 | O=C(Nc1ccc(C(O)(C(F)F)C(F)F)nc1)c1cccn(-c2cc(F)ccc2OCC(F)(F)F)c1=O [Example 124, 1-[5-fluoro-2-(2,2,2-trifluoroethoxy)phenyl]-2-oxo-N-[6-(1,1,3,3-tetrafluoro-2-hydroxypropan-2-yl)pyridin-3-yl]-1,2-dihydropyridine-3-carboxamide]
22 | 100 | Cc1cc(C(=O)Nc2ccc(C(O)(C(F)F)C(F)F)cc2)c(=O)n(-c2ccccc2OCC(F)F)n1 [Example 152, 2-[2-(2,2-difluoroethoxy)phenyl]-6-methyl-3-oxo-N-[4-(1,1,3,3-tetrafluoro-2-hydroxypropan-2-yl)phenyl]-2,3-dihydropyridazine-4-carboxamide]
23 | 88 | N#CCc1ccc(NC(=O)c2cccn(-c3ccccc3OCC(F)(F)F)c2=O)cn1 [Example 86, N-[6-(cyanomethyl)pyridin-3-yl]-2-oxo-1-[2-(2,2,2-trifluoroethoxy)phenyl]-1,2-dihydropyridine-3-carboxamide]
24 | 100 | CC(C)(C#N)c1ccc(NC(=O)c2cn(C3COC3)nc(-c3ccccc3OCC(F)F)c2=O)cc1 [Example 191, N-[4-(2-cyanopropan-2-yl)phenyl]-6-[2-(2,2-difluoroethoxy)phenyl]-2-(oxetan-3-yl)-5-oxo-2,5-dihydropyridazine-4-carboxamide]
25 | 100 | O=C(Nc1ccc(C(O)(C(F)F)C(F)F)cc1)c1cccn(-c2ccccc2OCC(F)(F)F)c1=O [Example 77, 2-oxo-N-[4-(1,1,3,3-tetrafluoro-2-hydroxypropan-2-yl)phenyl]-1-[2-(2,2,2-trifluoroethoxy)phenyl]-1,2-dihydropyridine-3-carboxamide]
26 | 99 | Cc1cc(C(=O)Nc2ccc(C(C)(C)O)nc2)c(=O)n(-c2ccccc2OCC(F)(F)F)n1 [Example 129, N-[6-(2-hydroxypropan-2-yl)pyridin-3-yl]-6-methyl-3-oxo-2-[2-(2,2,2-trifluoroethoxy)phenyl]-2,3-dihydropyridazine-4-carboxamide]
27 | 99 | CC(C)(O)c1ccc(NC(=O)c2ccnn(-c3ccc(F)cc3OCC(F)(F)C(F)(F)F)c2=O)cc1 [Example 106, 2-[4-fluoro-2-(2,2,3,3,3-pentafluoropropoxy)phenyl]-N-[4-(2-hydroxypropan-2-yl)phenyl]-3-oxo-2,3-dihydropyridazine-4-carboxamide]
28 | 95 | CC(C)(O)c1ccc(NC(=O)c2cccn(-c3cc(F)c(F)cc3OCC(F)(F)F)c2=O)cc1 [Example 108, 1-[4,5-difluoro-2-(2,2,2-trifluoroethoxy)phenyl]-N-[4-(2-hydroxypropan-2-yl)phenyl]-2-oxo-1,2-dihydropyridine-3-carboxamide]
